From patent publication US20040034045A1, “Inhibitors of thrombin induced platelet aggregation” (Parker Hughes Institute, priority 2000, published 2004)

Key:
[1] = system: thrombin-induced platelet aggregation; assay: Thrombin-induced platelet aggregation (platelet aggregometer); format: cell-based, human
Procedure: Platelet-rich plasma (PRP) was purchased from the Memorial Blood Bank (Minneapolis, Minn.) and used according to the guidelines of the Parker Hughes Institute Human Subjects Committee. The PRP samples were treated with varying concentrations of WHI-P131 for 20 minutes at 37° C. Control PRP samples were treated with vehicle alone. The treated PRP samples were diluted 1:4 with sterile normal saline and platelets were stimulated with thrombin (0.1 U/mL, Chronolog Inc., Philadelphia, Pa.) under stirred conditions. Platelet aggregation was monitored in a platelet aggregometer (Model 560 Dual Chamber Instrument, Chronolog Inc., Philadelphia, Pa.) for 5 minutes. The IC50 values for WHI-P131-mediated inhibition of agonist-induced platelet aggregation were calculated by non-linear regression analysis using Graphpad Prism software version 2.0 (Graphpad Software, Inc., San Diego, Calif.).

[2] = biological target: T1, JAK3 (Homo sapiens, UniProt P52333); assay: JAK3 inhibition (statement, no method)
T1 sequence (P52333 1-1124): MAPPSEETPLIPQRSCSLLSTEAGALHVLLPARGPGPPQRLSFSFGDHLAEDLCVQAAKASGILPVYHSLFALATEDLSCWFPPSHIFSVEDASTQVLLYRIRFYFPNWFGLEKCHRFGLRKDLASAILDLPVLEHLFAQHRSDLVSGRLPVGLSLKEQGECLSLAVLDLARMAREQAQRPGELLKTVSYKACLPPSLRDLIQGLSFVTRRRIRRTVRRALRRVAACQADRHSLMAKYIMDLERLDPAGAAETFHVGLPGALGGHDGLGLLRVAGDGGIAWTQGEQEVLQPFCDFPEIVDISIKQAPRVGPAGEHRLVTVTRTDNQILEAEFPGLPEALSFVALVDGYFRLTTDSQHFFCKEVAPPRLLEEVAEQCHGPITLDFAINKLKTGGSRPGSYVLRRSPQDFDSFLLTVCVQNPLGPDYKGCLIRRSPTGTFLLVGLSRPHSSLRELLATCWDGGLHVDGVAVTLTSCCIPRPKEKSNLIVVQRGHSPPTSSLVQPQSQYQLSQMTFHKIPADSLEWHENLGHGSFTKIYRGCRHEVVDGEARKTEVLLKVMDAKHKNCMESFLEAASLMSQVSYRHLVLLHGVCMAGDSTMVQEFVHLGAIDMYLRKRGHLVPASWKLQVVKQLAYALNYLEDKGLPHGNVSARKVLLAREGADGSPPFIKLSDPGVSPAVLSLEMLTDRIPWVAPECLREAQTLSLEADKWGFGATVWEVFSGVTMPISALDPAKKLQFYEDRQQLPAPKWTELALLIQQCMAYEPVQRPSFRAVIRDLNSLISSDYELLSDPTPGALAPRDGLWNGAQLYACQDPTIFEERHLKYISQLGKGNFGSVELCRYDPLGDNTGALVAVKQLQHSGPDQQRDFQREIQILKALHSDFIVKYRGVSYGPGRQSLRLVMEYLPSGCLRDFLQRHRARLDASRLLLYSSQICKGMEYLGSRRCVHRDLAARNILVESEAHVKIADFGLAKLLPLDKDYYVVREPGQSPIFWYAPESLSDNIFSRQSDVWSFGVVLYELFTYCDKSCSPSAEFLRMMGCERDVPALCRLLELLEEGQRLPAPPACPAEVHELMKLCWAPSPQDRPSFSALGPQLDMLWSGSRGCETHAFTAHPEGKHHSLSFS

[3] = system: mice; assay: Systemic toxicity in mice; format: in vivo
[4] = system: platelets; assay: Serotonin release from thrombin-stimulated platelets; format: cell-based, human; conditions: treated, N=4
Procedure: Release of serotonin from thrombin (0.1 U/mL)-stimulated platelets was measured using a serotonin detection kit (Immunotech, Marseille, France) according to the manufacturer's specifications. Sonnicated platelets were used for measurement of the total serotonin content of platelets.

[5] = system: collagen-induced platelet aggregation; assay: Collagen-induced platelet aggregation; format: cell-based, human; conditions: FIG. 7D
[6] = system: mice; assay: Tail bleeding time in mice; format: in vivo
Procedure: Mice (4-6 week old males, International Cancer Research (IRC)) were treated intravenously with 200 μL vehicle (PBS supplemented with 10% DMSO) or varying doses of WHI-P131 in […] vehicle. To evalulate bleeding and clotting times, treated mice were placed in a tube holder and tail bleeding was performed with a 2 mm cut from the protruding tail tip; the tail was placed vertically into 10 mL normal saline in a 37° C. water bath and bleeding times determined as previously described (Teng, et.al., 1997 Eur J Pharmacol 320(2-3), 161-6).

[7] = system: thromboplastin-induced thromboembolism; assay: Thromboplastin-induced thromboembolism model; format: in vivo
Procedure: Mice (4-6 week old males, International Cancer Research (IRC)) were treated […] with 200 μL of vehicle (PBS supplemented with 10% DMSO), varying doses of WH-P131 in 200 μL of vehicle (administered intraperitoneally (i.p.) 30 minutes prior to the thromboplastin challenge). The mice were challenged with 25 mg/kg thromboplastin (Sigma, St. Louis, Mo.) via a bolus intravenous injection into the tail vein as previously described (Sato, et.al., 1998 Jpn J. Pharmacol 78(2), 191-7).
At the time of thromboembolism-related death after the thromboplastin injection or elective sacrifice at 48 hours using ketamine/xylazine, all mice were perfused with PBS followed by 4% phosphate buffered formalin. PBS and formalin were pumped through the left ventricle of the heart and allowed to exit through a 3 mm incision through the anterior wall of the right ventricle. During necropsy, several selected tissues (brain, heart, liver, lungs) were harvested, fixed in 10% neutral buffered formalin, dehydrated, and embedded in paraffin by routine methods for histopathologic examination. Glass slides with affixed 6 micron tissue sections were prepared and stained with hemotoxylin and eosin (H&E) or Masson's trichrome.

[8] = system: monkeys; assay: Systemic toxicity in monkeys; format: in vivo; conditions: dose levels 1 mg/kg to 100 mg/kg
[9] = Plasma concentration in mice; format: in vivo

Compound | effect on thrombin-induced aggregation of platelets ([1]; even at 100 μM) | effect on thrombin induced platelet aggregation (aggregation curves) ([1]; thrombin 0.1 U/mL, FIG. 7B/7C) | JAK3 inhibition [2] | survival and health status without thromboplastin challenge ([3]; 20 control mice, 80 mg/kg, 48 hour observation) | toxicity on systemic administration ([3]; mice, dose levels 1 mg/kg to 100 mg/kg) | serotonin in platelet supernatants [4] [nM] | IC50 ([1]; Platelet, human platelets, pretreatment 30 minutes, thrombin 0.1 U/mL, average, read-out: IC50, inhibition of thrombin-induced platelet aggregation) [nM] | effect on collagen-induced platelet aggregation [5] | average tail bleeding time ([6]; 20 mg/kg, N=5) [min] | average tail bleeding time ([6]; 40 mg/kg, N=10) [min] | average tail bleeding time ([6]; 80 mg/kg, N=10) [min] | event-free survival outcome ([7]; mice, 25 mg/kg thromboplastin challenge) [%] | drug-related toxic lesions in organs (histopathology) ([7]; pretreated, thromboplastin-challenged mice) | toxicity on systemic administration [8] | plasma concentrations achieved without toxicity [9] [µM]
COc1cc2ncnc(Nc3ccccc3)c2cc1OC [WHI-P258] | did not affect | had no effect | does not inhibit | – | – | – | – | – | – | – | – | – | – | – | –
COc1cc2ncnc(Nc3ccc(O)cc3)c2cc1OC [WHI-P131, 4-(4′-Hydroxyphenyl)-amino-6,7-dimethoxyquinazoline] | – | – | – | survived beyond the 48 hour observation period without any evidence of impaired health status or bleeding | not toxic | 313 ± 19 | 1500 | does not inhibit | 9.4 ± 0.6 | > 10 | > 10 | 30±15 | No drug-related toxic lesions were detected | not toxic | ≥ 10
